# Tested on: PC9 xenograft tumours
# Assay: PC9 xenograft antitumour efficacy and regrowth
# Format: in vivo, female SCID mice
# Experimental: PC9 xenograft tumours were established by subcutaneous implantation of 5×10^6 cells per animal, in 100 μl of cell suspension including 50% matrigel, into the dorsal left flank of female SCID mice. All mice were older than 6 weeks at the time of cell implant. Tumor growth was monitored twice weekly by bilateral calliper measurements and tumour volume calculated using elliptical formula (pi/6×width×width×length).
# Mice were randomized into vehicle or treatment groups with approximate mean start size of 0.2 cm3. Randomization for animal studies was based on initial tumour volumes to ensure equal distribution across groups. Mice were dosed daily by oral gavage with vehicle or 25 mg/kg osimertinib or once weekly by intravenous with 25 mg/kg AZD2811 or with the combination of osimertinib and AZD2811. Note that all treatments were stopped on day 28. However, tumour growth was followed for approximately 200 additional days.
compound,measurement,setting,value
"C=CC(=O)Nc1cc(Nc2nccc(-c3cn(C)c4ccccc34)n2)c(OC)cc1N(C)CCN(C)C [osimertinib, N-(2-{2-dimethylaminoethyl-methylamino}-4-methoxy-5-{[4-(1-methylindol-3-yl)pyrimidin-2-yl]amino}phenyl) prop-2-enamide]",tumour shrinkage during 4-week treatment,"monotherapy, 25 mg/kg, osimertinib daily oral, AZD2811 once weekly intravenous",complete shrinkage
same,time at which tumour regrowth was observed,"osimertinib 25 mg/kg daily oral gavage for 28 days, then treatment stopped",around 80 days
